Literature values as cited in publication PMC11956011, “An Amazing 30-Year Journey around the DABO Family: A Medicinal Chemistry Lesson on a Versatile Class of Non-nucleoside HIV-1 Reverse Transcriptase Inhibitors” (Journal of Medicinal Chemistry, 2025).
Where two headings read alike, the source gives them in different places.

Tests used:
[1] = tested on: K103N HIV-1 mutant strain; details: for Fold-resistance K103N (EC50): Fig 10, in brackets
[2] = tested on: Y188L HIV-1 mutant strain; details: for Fold-resistance Y188L (EC50): Fig 10, in brackets
[3] = tested on: IRLL98 clinical isolate (K101Q, Y181C, G190A); details: Fig 9
[4] = tested on: HIV-1 RT (WT, recombinant)
Y181I HIV-1 RT = details: for Fold-resistance Y181I RT (ID50): Fig 10, in brackets
[5] = tested on: Y181C HIV-1 mutant strain; details: for Fold-resistance Y181C (EC50): Fig 10, in brackets
[6] = tested on: EFV^R (K103R + V179D + P225H mutant); details: Fig 9
N119 (Y181C mutant) = details: Fig 9
A17 (Y181C+K103N) = details: Fig 9
HIV-1 = details: for SI: Fig 10
L100I HIV-1 RT = details: for ID50: L100I: Fig 10; for Fold-resistance L100I RT (ID50): Fig 10, in brackets
[7] = Fig 9, read-out: EC50: NL4-3 wt
[8] = Fig 10, read-out: EC50: NL4-3 wt
[9] = read-out: EC50 against WT HIV-1

## Cc1c(O)nc(Sc2ccc(Cl)cc2)nc1Cc1c(F)cccc1F [compound 81]
HIV-1 NL4-3 wt; [7]
  EC50: 100 nM
[1]; Fig 9
  EC50: 8.01 µM
[2]; Fig 9
  EC50: > 66.1 µM
[3]
  EC50: > 66.1 µM
[4]; Fig 9
  ID50: WT: 22 µM
Y181I HIV-1 RT; Fig 9
  ID50: Y181I: > 400 µM
mock-infected cells; Fig 9
  CC50: > 66.1 µM

## COc1ccncc1Sc1nc(Cc2c(Cl)cccc2Cl)c(C)c(=O)[nH]1 [compound 82]
HIV-1 NL4-3 wt; [7]
  EC50: 2720 nM
[1]; Fig 9
  EC50: > 61.3 µM
[5]; Fig 9
  EC50: 6520 nM
[2]; Fig 9
  EC50: > 61.3 µM
[3]
  EC50: 8.68 µM
[4]; Fig 9
  ID50: WT: 3.5 µM
Y181I HIV-1 RT; Fig 9
  ID50: Y181I: > 400 µM
mock-infected cells; Fig 9
  CC50: > 61.3 µM

## Cc1cc(C)cc(Cc2nc(Sc3ccccc3)[nH]c(=O)c2C)c1 [compound 83]
[6]
  EC50: 80 µM
N119 (Y181C mutant)
  EC50: 5 µM
A17 (Y181C+K103N)
  EC50: > 100 µM
HIV-1; read-out: EC50: HIV-1 wt, Fig 9
  EC50: 1700 nM
mock-infected cells; Fig 9
  CC50: > 100 µM

## COc1cccc(Sc2nc(Cc3cc(C)cc(C)c3)c(C)c(=O)[nH]2)c1 [compound 84]
[6]
  EC50: 100 µM
N119 (Y181C mutant)
  EC50: 2 µM
A17 (Y181C+K103N)
  EC50: > 100 µM
mock-infected cells; Fig 9
  CC50: > 100 µM

## Cc1cc(C)cc(Cc2nc(Sc3cccnc3)[nH]c(=O)c2C)c1 [compound 85]
[6]
  EC50: 55 µM
N119 (Y181C mutant)
  EC50: 8 µM
A17 (Y181C+K103N)
  EC50: > 55 µM

## Cc1cc(C)cc(Cc2nc(Sc3cccc4ccccc34)[nH]c(=O)c2C)c1 [compound 86]
[6]
  EC50: 80 µM
N119 (Y181C mutant)
  EC50: 5 µM
A17 (Y181C+K103N)
  EC50: > 100 µM
mock-infected cells; Fig 9
  CC50: > 100 µM

## CCc1c(Cc2c(Cl)cccc2Cl)nc(SCC(=O)c2ccccc2)[nH]c1=O [compound 101]
HIV-1 NL4-3 wt; [8]
  EC50: 7 nM
[1]; Fig 10
  EC50: 1.2 µM
[1]
  Fold-resistance K103N (EC50): 171
[5]; Fig 10
  EC50: 46 nM
[5]
  Fold-resistance Y181C (EC50): 7
[2]; Fig 10
  EC50: 5 µM
[2]
  Fold-resistance Y188L (EC50): 714
[4]; Fig 10
  ID50: WT: 0.071 µM
Y181I HIV-1 RT; Fig 10
  ID50: Y181I: 0.33 µM
Y181I HIV-1 RT
  Fold-resistance Y181I RT (ID50): 5
L100I HIV-1 RT
  ID50: L100I: 3.54 µM
  Fold-resistance L100I RT (ID50): 50
HIV-1
  SI: > 7429
mock-infected cells; Fig 10
  CC50: > 52 µM

## CC(C)c1c(Cc2c(Cl)cccc2Cl)nc(SCC(=O)c2ccccc2)[nH]c1=O [compound 102]
HIV-1 NL4-3 wt; [8]
  EC50: 4 nM
[1]; Fig 10
  EC50: 5.1 µM
[1]
  Fold-resistance K103N (EC50): 1275
[5]; Fig 10
  EC50: 110 nM
[5]
  Fold-resistance Y181C (EC50): 27
[2]; Fig 10
  EC50: 5.5 µM
[2]
  Fold-resistance Y188L (EC50): 1375
[4]; Fig 10
  ID50: WT: 0.031 µM
Y181I HIV-1 RT; Fig 10
  ID50: Y181I: 16.8 µM
Y181I HIV-1 RT
  Fold-resistance Y181I RT (ID50): 542
L100I HIV-1 RT
  ID50: L100I: 10.1 µM
  Fold-resistance L100I RT (ID50): 326
HIV-1
  SI: > 14000
mock-infected cells; Fig 10
  CC50: > 56 µM

## CCc1c(Cc2c(F)cccc2Cl)nc(SCC(=O)c2ccc(F)cc2)[nH]c1=O [compound 103]
HIV-1 NL4-3 wt; [8]
  EC50: 5 nM
[1]; Fig 10
  EC50: 4.14 µM
[1]
  Fold-resistance K103N (EC50): 828
[5]; Fig 10
  EC50: 1930 nM
[5]
  Fold-resistance Y181C (EC50): 386
[2]; Fig 10
  EC50: > 57 µM
[4]; Fig 10
  ID50: WT: 0.033 µM
Y181I HIV-1 RT; Fig 10
  ID50: Y181I: 0.38 µM
Y181I HIV-1 RT
  Fold-resistance Y181I RT (ID50): 12
L100I HIV-1 RT
  ID50: L100I: 5.6 µM
  Fold-resistance L100I RT (ID50): 170
HIV-1
  SI: > 11400
mock-infected cells; Fig 10
  CC50: > 57 µM

## CCc1c(Cc2c(F)cccc2F)nc(SCC(=O)c2ccccc2)[nH]c1=O [compound 104]
HIV-1 NL4-3 wt; [8]
  EC50: 12 nM
[1]; Fig 10
  EC50: 1.3 µM
[1]
  Fold-resistance K103N (EC50): 108
[5]; Fig 10
  EC50: 200 nM
[5]
  Fold-resistance Y181C (EC50): 17
[2]; Fig 10
  EC50: > 56 µM
[4]; Fig 10
  ID50: WT: 0.043 µM
Y181I HIV-1 RT; Fig 10
  ID50: Y181I: 0.82 µM
Y181I HIV-1 RT
  Fold-resistance Y181I RT (ID50): 19
L100I HIV-1 RT
  ID50: L100I: 5.4 µM
  Fold-resistance L100I RT (ID50): 126
HIV-1
  SI: 4667
mock-infected cells; Fig 10
  CC50: 56 µM

## COc1ccc(CSc2nc(C(C)c3c(F)cccc3F)c(C)c(=O)[nH]2)cc1 (centres unmarked) [compound 140, 6-[1-(2,6-difluorophenyl)ethyl]-2-[(4-methoxybenzyl)thio]-5-methyl-4(3H)-pyrimidinone]
HIV-1 NL4-3 wt; [9]
  EC50: 0.025 nM

## Cc1c(C(C)c2c(F)cccc2F)nc(SCc2ccc(C#N)cc2)[nH]c1=O (centres unmarked) [compound 141]
HIV-1 NL4-3 wt; [9]
  EC50: 7.8 nM

## Cc1c(C(C)c2c(F)cccc2F)nc(SCc2ccc([N+](=O)[O-])cc2)[nH]c1=O (centres unmarked) [compound 142]
HIV-1 NL4-3 wt; [9]
  EC50: 3.3 nM

## COc1cc(F)c(C(=O)c2ccnc(Nc3ccc(C#N)cc3)n2)c(F)c1 [compound 169]
[5]; Fig 12, DAPY-DABO carbonyl hybrids
  EC50: Y181C: no activity
